Laboratory results published in patent US4011138A, “Process for the preparation of cholesterol esterase” (Kyowa Hakko Kogyo Co., Ltd., priority 1974, dated 1977).

Test system: cholesterol esterase
Assay: Substrate specificity: relative activity of cholesterol esterase on cholesterol esters
Format: biochemical, Pseudomonas fluorescens
Details: activity on cholesterol linoleate defined as 100; 37° C, 30 minutes, pH 7.5
Protocol: The determination of the enzyme activity on cholesterol linoleate is carried out by the following method.
A mixture having the following composition is prepared and shaken at 37° C for 30 minutes. […]
During the above-described operation, the substrate cholesterol linoleate is hydrolyzed by the action of cholesterol esterase into cholesterol and linoleic acid, and subsequently the formed cholesterol is oxidized to cholestenone by the action of cholesterol oxidase. After 30 minutes of shaking, the mixture is immediately subjected to the determination of residual unreacted cholesterol linoleate by Zurkowsky's method [Clinical Chemistry 10, 451 (1964)]. Then, the amount of the reacted cholesterol linoleate is calculated. The enzyme activity is expressed by "unit." A "unit" of enzyme activity is defined as that amount of enzyme which will decompose 1 μmole of cholesterol linoleate in 1 minute under the above-described conditions. The enzyme activities on other cholesterol esters are variable depending upon the kind of substrates and are determined in the similar manner.

Row | Structure (SMILES) | Relative activity
1 | CCCCCCCCCCCCCCCCCC(=O)O[C@H]1CC[C@@]2(C)C(=CC[C@H]3[C@@H]4CC[C@H]([C@H](C)CCCC(C)C)[C@@]4(C)CC[C@@H]32)C1 [Cholesterol stearate] | 58
2 | CCCCCCCC/C=C\CCCCCCCC(=O)O[C@H]1CC[C@@]2(C)C(=CC[C@H]3[C@@H]4CC[C@H]([C@H](C)CCCC(C)C)[C@@]4(C)CC[C@@H]32)C1 [Cholesterol oleate] | 93
3 | CC(=O)O[C@H]1CC[C@@]2(C)C(=CC[C@H]3[C@@H]4CC[C@H]([C@H](C)CCCC(C)C)[C@@]4(C)CC[C@@H]32)C1 [Cholesterol acetate] | 80
4 | CCCCCCCCCCCCCCCC(=O)O[C@H]1CC[C@@]2(C)C(=CC[C@H]3[C@@H]4CC[C@H]([C@H](C)CCCC(C)C)[C@@]4(C)CC[C@@H]32)C1 [Cholesterol palmitate] | 26
5 | CCCCC/C=C\C/C=C\CCCCCCCC(=O)O[C@H]1CC[C@@]2(C)C(=CC[C@H]3[C@@H]4CC[C@H]([C@H](C)CCCC(C)C)[C@@]4(C)CC[C@@H]32)C1 [Cholesterol linoleate] | 100

Test system: cholesterol esterase
Assay: Inhibitory effects of various substances on the enzyme activity
Format: biochemical, Pseudomonas fluorescens
Details: not given

Row | Structure (SMILES) | activity of the enzyme inhibited by heavy metal ions
6 | O=[N+]([O-])[O-].[Ag+] [AgNO3] | inhibited
7 | O=S(=O)([O-])[O-].[Cu+2] [CuSO4] | inhibited
8 | [Cl][Hg][Cl] [HgCl2] | inhibited

Same assay, conditions: 0.1 ml of 4 mM solution of the substance added, kept at 37° C for 15 minutes; substrate cholesterol linoleate, 37° C for 10 minutes; ratio of residual to initial cholesterol linoleate

Row | Structure (SMILES) | Inhibition ratio (%)
9 | O=C(O)CN(CCN(CC(=O)O)CC(=O)O)CC(=O)O [Ethylenediaminetetraacetic acid] | 0%
10 | c1cnc2c(c1)ccc1cccnc12 [o-Phenanthroline] | 0%

Same assay, conditions: cholesterol esterase, 4000 µM

Row | Structure (SMILES) | Inhibition ratio (%)
11 | [Cl][Mn][Cl] [MnCl2] | 0%
12 | [Ba+2].[Cl-].[Cl-] [BaCl2] | 0%
13 | O=[N+]([O-])[O-].[Ag+] [AgNO3] | 20%
14 | O=C(O)c1cc[c]([Hg][Cl])cc1 [p-Chloromercuri benzoic acid (p-CMB), p-Chloromercuri benzoic acid] | 0%
15 | O=S(=O)([O-])[O-].[Fe+2] [FeSO4] | 0%
16 | c1ccc(-c2ccccn2)nc1 [2,2'-Dipyridyl] | 0%
17 | O=S(=O)([O-])[O-].[Cu+2] [CuSO4] | 100%
18 | [Ca+2].[Cl-].[Cl-] [CaCl2] | 0%
19 | [Cl-].[Cl-].[Zn+2] [ZnCl2] | 0%
20 | [Cl][Hg][Cl] [HgCl2] | 100%

Test system: Pseudomonas fluorescens KY 3955 (FERM-P No. 2611) ATCC 31156
Assay: Cholesterol esterase activity of culture filtrates with fatty acids or fatty acid esters added to the fermentation medium
Format: cell-based
Details: additive at 5 g/l in soybean meal fermentation medium, 30° C for 24 hours; None = 20

Row | Structure (SMILES) | Activity (cholesterol esterase activity of culture filtrate)
21 | CCCCCCCC/C=C\CCCCCCCC(=O)O [oleic acid] | 170 unit/l
22 | CCCCCCCC/C=C\CCCCCCCC(=O)OCC(COC(=O)CCCCCCC/C=C\CCCCCCCC)OC(=O)CCCCCCC/C=C\CCCCCCCC [triolein] | 200 unit/l
23 | CCCCC/C=C\C/C=C\CCCCCCCC(=O)O [linoleic acid] | 310 unit/l
24 | CCCCCCCCCCCCCCCCCC(=O)O [stearic acid] | 230 unit/l
25 | CCCCC/C=C\C/C=C\CCCCCCCC(=O)OCC(COC(=O)CCCCCCC/C=C\C/C=C\CCCCC)OC(=O)CCCCCCC/C=C\C/C=C\CCCCC [trilinolein] | 250 unit/l
